Like-named read-outs stand apart in the source and are kept apart here.
Tests used:
[1] = design: method as in PMID 25051026; conditions: mice treated with L-BHDU; cited from earlier work
VZV-ORF57-Luc [2] = system: VZV-ORF57-Luc
VZV [3] = conditions: 15 mg/kg/day, SCID-hu mouse with human fetal skin xenografts; cited from earlier work
VZV-ORF57-ΔTS = assay: microbe, parasite or virus in culture; format: cell-based, Varicella zoster virus; conditions: Human alphaherpesvirus 3, ARPE-19
VZV-ORF57-Luc [4] = assay: microbe, parasite or virus in culture; conditions: Human alphaherpesvirus 3, ARPE-19, cell-free VZV-ORF57-Luc, ARPE-19 cells, 72 hpi, bioluminescence imaging
[5] = design: method as in PMID 25051026; conditions: measured in various mouse organs; cited from earlier work
[6] = Neutral red dye uptake cytotoxicity assay in ARPE-19 cells; conditions: human
VZV-ORF57-Luc [7] = assay: microbe, parasite or virus in culture; format: cell-based, Varicella zoster virus; conditions: Human alphaherpesvirus 3, ARPE-19
VZV-ORF57-ΔTKTS = assay: microbe, parasite or virus in culture; format: cell-based, Varicella zoster virus; conditions: Human alphaherpesvirus 3, ARPE-19
[8] = system: human foreskin fibroblasts (HFFs); design: method as in PMID 25051026; conditions: cited from earlier work
[9] = mouse, in vivo; cited from earlier work
VZV-ORF57-ΔTK = assay: microbe, parasite or virus in culture; format: cell-based, Varicella zoster virus; conditions: Human alphaherpesvirus 3, ARPE-19
[10] = Oral pharmacokinetic absorption study in BALB/c mice (plasma, LC-MS/MS); format: in vivo; conditions: both sexes, mouse, analyte L-BHDU in plasma, 11.4 mg/kg L-BHDU oral, BALB/c mice
Procedure: A pharmacokinetic absorption study was performed in BALB/c mice (Charles River). A single equimolar dose of 22.5 mg/kg POM-L-BHDU-MP or 11.4 mg/kg L-BHDU was dissolved in Cremophor–dimethyl sulfoxide (DMSO)–saline (1:1:8) and administered by oral gavage to two groups of mice with equal numbers of male and female mice (N = 15 each male and female).
Plasma was separated from red blood cells and immediately frozen at −80 °C.
This animal protocol #282 was approved by the IACUC at SUNY Upstate Medical University, which has been fully accredited by AAALAC since 7/31/1999. This method was previously used to evaluate L-BHDU effects on 5-fluorouracil metabolism.[16] Briefly, a single equimolar dose of 22.5 mg/kg POM-L-BHDU-MP or 11.4 mg/kg L-BHDU was dissolved in Cremophor–DMSO–saline (1:1:8) and administered by oral gavage to two groups of BALB/c mice (Charles River) with equal numbers of male and female mice (N = 15 each male and female). Six untreated mice were used for blank controls and were labeled time 0. At 20, 40, 60, and 120 min, three mice from the POM-L-BHDU-MP group and three mice from the L-BHDU group were anesthetized with inhaled isoflurane and then exsanguinated by cardiac puncture. Blood samples were collected into a tube containing heparin. Plasma was separated from red blood cells by centrifugation at 10,000 rpm for 5 min. Plasma was transferred to a new tube and immediately frozen at −80 °C.
Plasma samples were thawed, and exactly 0.95 mL was removed for analysis. The internal standard azidothymidine was added to mouse plasma samples at a final concentration of 20 ng/mL. Proteins were precipitated from the plasma by adding 2× volumes of methanol, then the samples were clarified by centrifugation. The supernatants were dried using an N-EVAP 116 analytical nitrogen evaporator and then reconstituted with 50% methanol in water. LC-MS/MS was used to analyze the concentrations of POM-L-BHDU-MP, L-BHDU, and L-BHDU-MP. Calibration curves were made using BALB/c mouse plasma (Innovative Research, Inc. Novi MI) prior to analyzing the experimental samples.
The primary stock solutions for the calibration were prepared at 0.5 mg/mL for L-BHDU, 1 mg/mL for POM-L-BHDU-MP, and 1 mg/mL for L-BHDU-MP. The primary stock solutions were diluted to working solutions that were in turn used to spike the biological matrix of interest. L-BHDU calibration points were 100.0, 400.0, 800.0, 1000.0, 4000.0, 6000.0, 8000.0, 10,000.0, and 12,000.0 ng/mL. L-BHDU-MP calibration points were 100.0, 200.0, 400.0, 800.0, 1000.0, 2000.0, 4000.0, 6000.0, and 8000.0 ng/mL. The ISTD working solution of AZT was prepared at 20 ng/mL. The standard stock solutions were stored in −80 °C freezer until used. […] The samples were analyzed in a negative ESI mode. […]

VZV [11] = system: VZV; design: method as in PMID 25051026; conditions: VZV in human foreskin fibroblasts (HFFs); cited from earlier work
[12] = selectivity index = CC50/EC50, ARPE-19 cells

SMILES | 5-FU accumulation in treated mice [1] | SI (CC50/EC50) (VZV-ORF57-Luc [2]) | SI (CC50/EC50) (VZV-ORF57-Luc [2]; [12]) | effect on VZV replication (VZV [3]) | EC50 (VZV-ORF57-ΔTS) | EC50 (VZV-ORF57-Luc [4]) | brain penetration [5] | CC50 at 72 h [6] | EC50 (VZV-ORF57-Luc [7]) | EC50 (VZV-ORF57-ΔTKTS) | not cytotoxic up to ([8]; HFFs) | well tolerated up to (dose) [9] | EC50 (VZV-ORF57-ΔTK) | Cmax at 2 h [10] | Tmax at 2 h [10] | AUC at 2 h ([10]; 0 to 120 min) | EC50 (VZV-ORF57-Luc [2]; cell-free VZV-ORF57-Luc, ARPE-19 cells, 72 hpi, bioluminescence imaging) | SI (CC50/EC50) (VZV-ORF57-Luc [2]; selectivity index = CC50/EC50, ARPE-19 cells, listed as 17) | CC50 [8] | EC50 (VZV [11])
O=c1[nH]c(=O)n([C@@H]2CO[C@H](CO)O2)cc1/C=C/Br [L-BHDU (1), β-L-5-((E)-2-bromovinyl)-1-((2S,4S)-2-(hydroxymethyl)-1,3-(dioxolane-4-yl))uracil] | did not accumulate | >3878 | >3878 | effectively reduced VZV replication | 0.028 µM | 0.0258 µM | did not penetrate the brain | > 100 µM | 0.18 µM | > 2 µM | up to 200 μM | up to 150 mg/kg | > 2 µM | 7.1 µg/mL | 2 h | 12.7 µg·h/mL | – | – | – | –
CC(C)[C@@H](N)C(=O)OC[C@H]1OC[C@@H](n2cc(/C=C/Br)c(=O)[nH]c2=O)O1.Cl [L-BHDU-L-valine (17), L-BHDU-5′-O-L-valyl Ester Hydrochloride] | – | >3322 | >3322 | – | – | 0.03 µM | – | > 100 µM | – | – | – | – | – | – | – | – | 0.0301 µM | > 3322 | > 200 µM | 0.03 µM

From publication PMC10226046, “Prodrug Strategies for the Development of β-L-5-((E)-2-Bromovinyl)-1-((2S,4S)-2-(hydroxymethyl)-1,3-(dioxolane-4-yl))uracil (L-BHDU) against Varicella Zoster Virus (VZV)” (Journal of Medicinal Chemistry, 2023)
